Measurements as given in US7612087B2, “Heterocyclic compounds as inhibitors of beta-lactamases” (Novexel, priority 2002, dated 2009).
Read-outs that look alike come from different tables or passages of the source.

Columns and labels:
E. coli 250CF1 (Tem3) = experiment: microbe, parasite or virus in culture; type: cell-based; conditions: compound at 5 mg/l, 24 hours at 37° C.; for MIC of Cefotaxime in combination with the compound: Trial 4, 250CF1 E. coli Tem3; for MIC of Piperacillin in combination with the compound: Trial 4, 250CF1 Tem3
Protocol: (§1) The operation is carried out as follows, using the so-called micro-dilution in liquid medium method.
(§2) A series of concentrations of the β-lactamine is prepared in the presence of a constant concentration (5 mg/l) of the product to be studied, each is then seeded with various bacterial strains.
(§3) After incubation for 24 hours in a heating chamber at 37° C., the growth inhibition is evaluated by the absence of any bacterial development, which allows the minimal inhibitory concentrations (MIC) for each strain to be determined, expressed in milligrams/l.

β-lactamase TEM1 = target: T1, β-lactamase TEM1 (Escherichia coli, UniProt P62593); experiment: Inhibition of isolated β-lactamase Tem-1 (Nitrocefin hydrolysis); type: biochemical, E.coli 250HT21; conditions: 100 μM Nitrocefin, 50 mM sodium phosphate buffer pH7.0, 37° C.
T1 construct: The β-lactamases are isolated from bacterial strains which are resistant to penicillins and cephalosporins; endogenous in cells; host or cells: E. coli 250HT21 (natural producer; French-press lysate, 100,000 g supernatant)
Protocol: (§4) A. Preparation of the β-lactamases Tem-1 and P99
(§5) The β-lactamases are isolated from bacterial strains which are resistant to penicillins and cephalosporins (Tem1 and P99 are produced by E.coli 250HT21 and E.Cloacae 293HT6 respectively).
(§6) The bacteria are cultured at 37° C. in heart-brain culture at 37 g/l (DIFCO). They are harvested at the end of the exponential phase, cooled down and centrifuged. The bacterial pellets are taken up in sodium phosphate buffer 50 mM, pH 7.0 and centrifuged again. The bacteria are taken up in two volumes of the same buffer and lyzed using a French-Press maintained at 4° C. After centrifugation for 1 hour at 100,000 g, at 4° C., the supernatants containing the soluble fraction of the bacterial extracts are recovered and frozen at −80° C.
(§7) The method uses Nitrocefin (OXOID), cephalosporin chromogene as substrate, of which the product hydrolyzed by the B-lactamases is red and absorbs at 485 nm. Beta-lactamase activity is determined kinetically by measurement of the absorbance variation at 485 nm resulting from the hydrolysis of the substrate using a plate spectrophotometer (Spectra Max More Molecular Devices). The experiments are carried out at 37° C. The quantity of enzyme was normalized and the measurements are carried out at initial speed.
(§8) Two measurements were carried out, without preincubation and with preincubation of the enzyme and inhibitor (5 mn), in order to test the irreversibility of the reaction. The products are tested at 6 or 8 concentrations in duplicate. The reaction mixture contains 100 μM of Nitrocefin and 50 mM sodium phosphate buffer pH7.0.
(§9) The hydrolysis speeds are measured with and without inhibitor. The concentration of inhibitor which inhibits by 50% the hydrolysis reaction of Nitrocefin by the enzyme (CI50) is determined. The data is processed using GraFit software (Erathycus Software).

E. coli 250SJ1 (Tem7) = experiment: MIC, micro-dilution in liquid medium, β-lactamine with product at 5 mg/l; type: cell-based; conditions: compound at 5 mg/l, 24 hours at 37° C.; for MIC of Cefotaxime in combination with the compound: Trial 5, 250SJ1 E. coli Tem7; for MIC of Piperacillin in combination with the compound: Trial 5, 250SJ1 Tem7
Protocol: as §1, §2, §3

Serratia 301HT6 = experiment: as above; type: cell-based; conditions: compound at 5 mg/l; Trial 10, 301HT6 Serratia; 24 hours at 37° C.
Protocol: as §1, §2, §3

E. coli 250HT22 (Tem2) = experiment: as above; type: cell-based; conditions: compound at 5 mg/l, 24 hours at 37° C.; for MIC of Cefotaxime in combination with the compound: Trial 3, 250HT22 E. coli Tem2; for MIC of Piperacillin in combination with the compound: Trial 3, 250HT22 Tem2
Protocol: as §1, §2, §3

[1] = test system: E. cloacae 293HT6 (Class C); experiment: as above; type: cell-based; conditions: compound at 5 mg/l, 24 hours at 37° C.; for MIC of Piperacillin in combination with the compound: Trial 9, 293HT6 Class; for MIC of Cefotaxime in combination with the compound: Trial 9, 293HT6 E. cloacae Class C
Protocol: as §1, §2, §3

E. coli 250BE1 (SHV4) = experiment: as above; type: cell-based; conditions: compound at 5 mg/l, 24 hours at 37° C.; for MIC of Cefotaxime in combination with the compound: Trial 7, 250BE1 E. coli SHV4; for MIC of Piperacillin in combination with the compound: Trial 7, 250BE1 SHV4
Protocol: as §1, §2, §3

[2] = test system: P. aeruginosa 391HT7 (PSE); experiment: as above; type: cell-based; conditions: compound at 5 mg/l, 24 hours at 37° C.; for MIC of Cefotaxime in combination with the compound: Trial 11, 391HT7 P. aeruginosa PSE; for MIC of Piperacillin in combination with the compound: Trial 11, 391HT7 PSE
Protocol: as §1, §2, §3

[3] = test system: P. aeruginosa 391HT8 (PSE); experiment: as above; type: cell-based; conditions: compound at 5 mg/l, 24 hours at 37° C.; for MIC of Cefotaxime in combination with the compound: Trial 12, 391HT8 P. aeruginosa PSE; for MIC of Piperacillin in combination with the compound: Trial 12, 391HT8 PSE
Protocol: as §1, §2, §3

E. coli 250HT21 (Tem1) = experiment: as above; type: cell-based; conditions: compound at 5 mg/l, 24 hours at 37° C.; for MIC of Cefotaxime in combination with the compound: Trial 2, 250HT21 E. coli Tem1; for MIC of Piperacillin in combination with the compound: Trial 2, 250HT21 Tem1
Protocol: as §1, §2, §3

[4] = test system: S. aureus 011GO66 (PeniR); experiment: as above; type: cell-based; conditions: compound at 5 mg/l, 24 hours at 37° C.; for MIC of Cefotaxime in combination with the compound: Trial 1, 011GO66 S. aureus PeniR; for MIC of Piperacillin in combination with the compound: Trial 1, 011GO66 peniR
Protocol: as §1, §2, §3

E. coli 250HT26 (SHV1) = experiment: as above; type: cell-based; conditions: compound at 5 mg/l, 24 hours at 37° C.; for MIC of Cefotaxime in combination with the compound: Trial 6, 250HT26 E. coli SHV1; for MIC of Piperacillin in combination with the compound: Trial 6, 250HT26 SHV1
Protocol: as §1, §2, §3

[5] = test system: E. coli 250HT23 (Class D); experiment: as above; type: cell-based; conditions: compound at 5 mg/l, 24 hours at 37° C.; for MIC of Piperacillin in combination with the compound: Trial 8, 250HT23 Class D; for MIC of Cefotaxime in combination with the compound: Trial 8, 250HT23 E. coli Class D
Protocol: as §1, §2, §3

β-lactamase P99 = target: T2, β-lactamase P99 (Enterobacter cloacae, UniProt P05364); experiment: biochemical
T2 construct: The β-lactamases are isolated from bacterial strains which are resistant to penicillins and cephalosporins; endogenous in cells; host or cells: Enterobacter cloacae 293HT6 (natural producer; French-press lysate, 100,000 g supernatant)
Protocol: as §4, §5, §6, §7, §8, §9

[6] = 100 μM Nitrocefin, 50 mM sodium phosphate buffer pH7.0, 37° C., read-out: IC50 nM/P99

T2 sequence (P05364 21-381): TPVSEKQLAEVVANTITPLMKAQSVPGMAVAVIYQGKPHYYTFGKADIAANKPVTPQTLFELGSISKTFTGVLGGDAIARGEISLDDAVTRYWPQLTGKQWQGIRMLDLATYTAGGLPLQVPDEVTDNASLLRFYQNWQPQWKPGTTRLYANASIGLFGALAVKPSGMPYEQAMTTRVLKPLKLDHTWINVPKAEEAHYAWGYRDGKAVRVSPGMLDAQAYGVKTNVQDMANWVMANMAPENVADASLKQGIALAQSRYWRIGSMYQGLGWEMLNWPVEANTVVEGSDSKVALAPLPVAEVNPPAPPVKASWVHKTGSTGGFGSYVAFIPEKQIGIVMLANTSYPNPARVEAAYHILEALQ
T1 sequence (P62593 24-286 limits assumed): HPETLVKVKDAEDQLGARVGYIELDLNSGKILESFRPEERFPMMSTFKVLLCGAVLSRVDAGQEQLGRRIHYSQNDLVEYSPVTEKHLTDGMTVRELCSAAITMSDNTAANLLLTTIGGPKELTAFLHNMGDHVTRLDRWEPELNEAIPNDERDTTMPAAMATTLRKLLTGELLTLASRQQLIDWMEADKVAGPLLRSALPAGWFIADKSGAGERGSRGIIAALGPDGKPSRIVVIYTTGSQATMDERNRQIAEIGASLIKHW

## O=C(NCCc1ccccn1)[C@H]1CC[C@@H]2CN1C(=O)N2OS(=O)(=O)[O-].[Na+] (relative stereo) [Example 38, sodium salt of trans-7-oxo-N-[2-(2-pyridinyl)ethyl]-6-(sulphooxy)-1,6-diazabicyclo[3.2.1]octane-2-carboxamide]
E. coli 250CF1 (Tem3)
  MIC of Cefotaxime in combination with the compound: 0.3 µg/mL
  MIC of Piperacillin in combination with the compound: 20 µg/mL
β-lactamase TEM1
  IC50: 35 nM
E. coli 250SJ1 (Tem7)
  MIC of Cefotaxime in combination with the compound: <=0.04 μg/ml
  MIC of Piperacillin in combination with the compound: >40 µg/mL
Serratia 301HT6
  MIC of Cefotaxime in combination with the compound: 0.08 µg/mL
  MIC of Piperacillin in combination with the compound: 1.2 µg/mL
E. coli 250HT22 (Tem2)
  MIC of Cefotaxime in combination with the compound: <=0.04 μg/ml
  MIC of Piperacillin in combination with the compound: >40 µg/mL
[1]
  MIC of Piperacillin in combination with the compound: 40 µg/mL
  MIC of Cefotaxime in combination with the compound: 20 µg/mL
E. coli 250BE1 (SHV4)
  MIC of Cefotaxime in combination with the compound: 0.3 µg/mL
  MIC of Piperacillin in combination with the compound: >40 µg/mL
[2]
  MIC of Cefotaxime in combination with the compound: 40 µg/mL
  MIC of Piperacillin in combination with the compound: >40 µg/mL
[3]
  MIC of Cefotaxime in combination with the compound: 40 µg/mL
  MIC of Piperacillin in combination with the compound: >40 µg/mL
E. coli 250HT21 (Tem1)
  MIC of Cefotaxime in combination with the compound: <=0.04 μg/ml
  MIC of Piperacillin in combination with the compound: 5 µg/mL
[4]
  MIC of Cefotaxime in combination with the compound: 1.2 µg/mL
  MIC of Piperacillin in combination with the compound: 0.6 µg/mL
E. coli 250HT26 (SHV1)
  MIC of Cefotaxime in combination with the compound: <=0.04 μg/ml
  MIC of Piperacillin in combination with the compound: 40 µg/mL
[5]
  MIC of Piperacillin in combination with the compound: >40 µg/mL
  MIC of Cefotaxime in combination with the compound: <=0.04 μg/ml
β-lactamase P99; [6]
  IC50: 77 nM

## O=C(NCc1ccncc1)[C@H]1CC[C@@H]2CN1C(=O)N2OS(=O)(=O)[O-].[Na+] (relative stereo) [Example 42, sodium salt of trans-7-oxo-N-[(4-pyridinyl)methyl]-6-(sulphooxy)-1,6-diazabicyclo[3.2.1]octane-2-carboxamide]
E. coli 250CF1 (Tem3)
  MIC of Cefotaxime in combination with the compound: <=0.04 μg/ml
  MIC of Piperacillin in combination with the compound: 2.5 µg/mL
β-lactamase TEM1
  IC50: 25 nM
E. coli 250SJ1 (Tem7)
  MIC of Cefotaxime in combination with the compound: <=0.04 μg/ml
  MIC of Piperacillin in combination with the compound: 2.5 µg/mL
Serratia 301HT6
  MIC of Cefotaxime in combination with the compound: <=0.04 μg/ml
  MIC of Piperacillin in combination with the compound: 0.6 µg/mL
E. coli 250HT22 (Tem2)
  MIC of Cefotaxime in combination with the compound: <=0.04 μg/ml
  MIC of Piperacillin in combination with the compound: 2.5 µg/mL
[1]
  MIC of Piperacillin in combination with the compound: 1.2 µg/mL
  MIC of Cefotaxime in combination with the compound: 0.3 µg/mL
E. coli 250BE1 (SHV4)
  MIC of Cefotaxime in combination with the compound: <=0.04 μg/ml
  MIC of Piperacillin in combination with the compound: 5 µg/mL
[2]
  MIC of Cefotaxime in combination with the compound: 20 µg/mL
  MIC of Piperacillin in combination with the compound: >40 µg/mL
[3]
  MIC of Cefotaxime in combination with the compound: 20 µg/mL
  MIC of Piperacillin in combination with the compound: >40 µg/mL
E. coli 250HT21 (Tem1)
  MIC of Cefotaxime in combination with the compound: <=0.04 μg/ml
  MIC of Piperacillin in combination with the compound: 1.2 µg/mL
[4]
  MIC of Cefotaxime in combination with the compound: 2.5 µg/mL
  MIC of Piperacillin in combination with the compound: 1.2 µg/mL
E. coli 250HT26 (SHV1)
  MIC of Cefotaxime in combination with the compound: <=0.04 μg/ml
  MIC of Piperacillin in combination with the compound: 5 µg/mL
[5]
  MIC of Piperacillin in combination with the compound: 5 µg/mL
  MIC of Cefotaxime in combination with the compound: <=0.04 μg/ml
β-lactamase P99; [6]
  IC50: 70 nM

## NC(=O)[C@@H]1CC[C@@H]2CN1C(=O)N2OS(=O)(=O)O (relative stereo) [Example 33, trans-7-oxo-6-(sulphooxy)-1,6-diazabicyclo[3.2.1]octane-2-carboxamide]
E. coli 250CF1 (Tem3)
  MIC of Cefotaxime in combination with the compound: <=0.04 μg/ml
  MIC of Piperacillin in combination with the compound: 1.2 µg/mL
E. coli 250SJ1 (Tem7)
  MIC of Cefotaxime in combination with the compound: <=0.04 μg/ml
  MIC of Piperacillin in combination with the compound: 0.6 µg/mL
Serratia 301HT6
  MIC of Cefotaxime in combination with the compound: 0.08 µg/mL
  MIC of Piperacillin in combination with the compound: 0.6 µg/mL
E. coli 250HT22 (Tem2)
  MIC of Cefotaxime in combination with the compound: <=0.04 μg/ml
  MIC of Piperacillin in combination with the compound: 0.6 µg/mL
[1]
  MIC of Piperacillin in combination with the compound: 0.6 µg/mL
  MIC of Cefotaxime in combination with the compound: <=0.04 μg/ml
E. coli 250BE1 (SHV4)
  MIC of Cefotaxime in combination with the compound: <=0.04 μg/ml
  MIC of Piperacillin in combination with the compound: 1.2 µg/mL
[2]
  MIC of Cefotaxime in combination with the compound: 20 µg/mL
  MIC of Piperacillin in combination with the compound: >40 µg/mL
[3]
  MIC of Cefotaxime in combination with the compound: 20 µg/mL
  MIC of Piperacillin in combination with the compound: 10 µg/mL
E. coli 250HT21 (Tem1)
  MIC of Cefotaxime in combination with the compound: <=0.04 μg/ml
  MIC of Piperacillin in combination with the compound: 0.3 µg/mL
[4]
  MIC of Cefotaxime in combination with the compound: 2.5 µg/mL
  MIC of Piperacillin in combination with the compound: 1.2 µg/mL
E. coli 250HT26 (SHV1)
  MIC of Cefotaxime in combination with the compound: <=0.04 μg/ml
  MIC of Piperacillin in combination with the compound: 1.2 µg/mL
[5]
  MIC of Piperacillin in combination with the compound: 2.5 µg/mL
  MIC of Cefotaxime in combination with the compound: <=0.04 μg/ml
β-lactamase P99
  IC50: 330 nM
